Consider 1 substance from patent publication US11066668B2, “Compositions and methods for modulation of IKBKAP splicing” (Ionis Pharmaceuticals, Inc., priority 2012, dated 2021).

The test system of the data set is IKBKAP pre-mRNA (mt19-21 minigene). The experiment in a line: Exon 20 inclusion in HEK-293 cells harboring the mt19-21 IKBKAP minigene (RT-PCR). The following applies: Table 2 (microwalk experiment); HEK-293 with mt19-21 minigene, 0.007 nmol oligonucleotide by electroporation, RT-PCR two days later. The format is cell-based, human. Summed up:
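HEK-293 cells carrying the mt19-21 IKBKAP minigene were electroporated with 0.007 nmol uniform 2′-MOE phosphate-backbone antisense oligonucleotide (15- or 20-mers, 5-methylcytosines). After two days, RT-PCR with α^32P-dCTP-labeled amplicons, native PAGE and phosphorimaging gave exon 20 inclusion, normalized for G+C content.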

Oligonucleotides are written 5' to 3', each unit as a sugar letter and its base; * is a phosphorothioate linkage, no mark a phosphodiester; rarer units and linkages stand in square brackets, end groups in braces. Plain capitals give the bases only. e = 2'-O-(2-methoxyethyl) (MOE); [5mC] = 5-methylcytosine

“ISIS 421992: uniform 2′-MOE 20-mer, phosphate backbone; GTCGCAAACAGTACAATGGC, SEQ ID NO 61, intron 20 (eGeTe[5mC]eGe[5mC]eAeAeAe[5mC]eAeGeTeAe[5mC]eAeAeTeGeGe[5mC])”: the “% inclusion (exon 20)” value is listed as 96%.
